Data: PubChem BioAssay (NCI)
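Results reflect a 48-hour exposure of cells in 96-well plates to compound at five concentrations. TGI: total growth inhibition.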 Where a SMILES comes first, the peptide text is derived from it. The star is where a group is joined. ONb = O=[N+]([O-])c1ccc(CO*)cc1; Boc = CC(C)(C)OC(=O)*

Columns and labels:
Test in all cases: DTP human tumour cell line panel, 48 h
[1] = system: MALME-3M melanoma
[2] = system: RPMI-8226 leukemia
[3] = system: K-562 leukemia
[4] = system: T-47D breast
[5] = system: TK-10 renal
[6] = system: LOX IMVI melanoma
[7] = system: HL-60(TB) leukemia
[8] = system: HT29 colon
[9] = system: 786-0 renal
[10] = system: M14 melanoma
[11] = system: A498 renal
[12] = system: DU-145 prostate
[13] = system: SW-620 colon
[14] = system: HCT-15 colon
[15] = system: SF-295 CNS
[16] = system: SNB-75 CNS
[17] = system: NCI-H460 lung
[18] = system: HOP-92 NSCLC
[19] = system: UO-31 renal
[20] = system: NCI/ADR-RES ovarian
[21] = system: UACC-62 melanoma
[22] = system: OVCAR-8 ovarian
[23] = system: U251 CNS
[24] = system: OVCAR-3 ovarian
[25] = system: SF-539 CNS
[26] = system: HOP-62 NSCLC
[27] = system: SF-268 CNS
[28] = system: NCI-H23 lung
[29] = system: COLO 205 colon
[30] = system: SK-MEL-28 melanoma
[31] = system: UACC-257 melanoma
[32] = system: PC-3 prostate
[33] = system: SN12C renal
[34] = system: SNB-19 CNS
[35] = system: SR leukemia
[36] = system: EKVX NSCLC
[37] = system: MDA-MB-231 breast
[38] = system: ACHN renal
[39] = system: HCC-2998 colon
[40] = system: HCT-116 colon
[41] = system: OVCAR-5 ovarian
[42] = system: CCRF-CEM leukemia
[43] = system: MOLT-4 leukemia
[44] = system: MDA-N
[45] = system: IGROV1 ovarian
[46] = system: SK-MEL-2 melanoma
[47] = system: CAKI-1 renal
[48] = system: OVCAR-4 ovarian
[49] = system: HS 578T breast
[50] = system: SK-OV-3 ovarian
[51] = system: SK-MEL-5 melanoma
[52] = system: RXF 393 renal
[53] = system: MCF7 breast
[54] = system: MDA-MB-435
[55] = system: NCI-H226 lung
[56] = system: A549 NSCLC
[57] = system: BT-549 breast

CC(C)CC(NC(=O)OC(C)(C)C)C(=O)NC(CCC(=O)OCc1ccc([N+](=O)[O-])cc1)C(=O)OCc1ccc([N+](=O)[O-])cc1 (stereo not drawn) (Boc-Leu-Glu(ONb)-ONb; configuration not given here)
TGI [1]: > 100 µM | TGI [2]: 88.4 µM | TGI [3]: 39.4 µM | TGI [4]: > 100 µM | TGI [5]: > 100 µM | TGI [6]: 63.8 µM | TGI [7]: 19.1 µM | TGI [8]: 94.7 µM | TGI [9]: 71.5 µM | TGI [10]: 57.8 µM | TGI [11]: > 100 µM | TGI [12]: 44.9 µM | TGI [13]: > 100 µM | TGI [14]: > 100 µM | TGI [15]: > 100 µM | TGI [16]: 31.9 µM | TGI [17]: 56.1 µM | TGI [18]: > 100 µM | TGI [19]: > 100 µM | TGI [20]: > 100 µM | TGI [21]: 99.3 µM | TGI [22]: > 100 µM | TGI [23]: > 100 µM | TGI [24]: 77.4 µM | TGI [25]: 37.2 µM | TGI [26]: > 100 µM | TGI [27]: 39.3 µM | TGI [28]: 59.4 µM | TGI [29]: > 100 µM | TGI [30]: 30.9 µM | TGI [31]: > 100 µM | TGI [32]: > 100 µM | TGI [33]: > 100 µM | TGI [34]: > 100 µM | TGI [35]: 37.1 µM | TGI [36]: > 100 µM | TGI [37]: > 100 µM | TGI [38]: > 100 µM | TGI [39]: 44.6 µM | TGI [40]: > 100 µM | TGI [41]: > 100 µM | TGI [42]: 57.5 µM | TGI [43]: 39.8 µM | TGI [44]: > 100 µM | TGI [45]: 47.6 µM | TGI [46]: 78.3 µM | TGI [47]: > 100 µM | TGI [48]: > 100 µM

CN1C(=O)[C@@H]2[C@@H]3c4ccccc4N(S(=O)(=O)C(F)(F)F)[C@@H]3c3[nH]c4ccccc4c3[C@@H]2C1=O
TGI [2]: > 100 µM | TGI [3]: > 100 µM | TGI [5]: > 100 µM | TGI [6]: > 100 µM | TGI [8]: > 100 µM | TGI [9]: > 100 µM | TGI [11]: > 100 µM | TGI [12]: > 100 µM | TGI [13]: > 100 µM | TGI [14]: > 100 µM | TGI [49]: > 100 µM | TGI [15]: > 100 µM | TGI [16]: > 100 µM | TGI [17]: > 100 µM | TGI [18]: 35.4 µM | TGI [19]: > 100 µM | TGI [50]: > 100 µM | TGI [20]: > 100 µM | TGI [21]: > 100 µM | TGI [22]: > 100 µM | TGI [23]: > 100 µM | TGI [24]: > 100 µM | TGI [51]: > 100 µM | TGI [52]: > 100 µM | TGI [25]: > 100 µM | TGI [26]: > 100 µM | TGI [53]: > 100 µM | TGI [27]: > 100 µM | TGI [54]: > 100 µM | TGI [28]: > 100 µM | TGI [29]: > 100 µM | TGI [30]: > 100 µM | TGI [31]: > 100 µM | TGI [32]: > 100 µM | TGI [33]: > 100 µM | TGI [34]: > 100 µM | TGI [55]: > 100 µM | TGI [35]: 43 µM | TGI [36]: > 100 µM | TGI [37]: > 100 µM | TGI [38]: > 100 µM | TGI [39]: > 100 µM | TGI [40]: > 100 µM | TGI [41]: > 100 µM | TGI [56]: > 100 µM | TGI [42]: > 100 µM | TGI [57]: > 100 µM | TGI [43]: 47 µM | TGI [44]: > 100 µM | TGI [45]: 5.43 µM | TGI [46]: > 100 µM | TGI [47]: > 100 µM | TGI [48]: > 100 µM
